Each structure is given as a SMILES string.

The target of the first assay is Cyclin-dependent kinase 4/Cyclin D1. The assay can be described thus: Inhibition of CDK4/Cyclin D1 (unknown origin).
Usually IC50 stands for the concentration that gives 50% inhibition. In the case of `COc1ccc(/C=C\c2cc(OC)c(OC)c(OC)c2)cc1NC(=O)CCC(=O)N[C@@H](CCCNC(=N)N)C(=O)O`, the IC50 is greater than 10 µM.

The target of another assay is Neuropilin-1 (Homo sapiens) (UniProt O14786). The assay can be described thus: Inhibition of [125I]-VEGF-A165 binding to NRP1 (unknown origin) transfected in HUVECs incubated for 2 hrs by plate reader analysis.
Chain of Neuropilin-1 (Homo sapiens) (O14786 whole entry, looked up): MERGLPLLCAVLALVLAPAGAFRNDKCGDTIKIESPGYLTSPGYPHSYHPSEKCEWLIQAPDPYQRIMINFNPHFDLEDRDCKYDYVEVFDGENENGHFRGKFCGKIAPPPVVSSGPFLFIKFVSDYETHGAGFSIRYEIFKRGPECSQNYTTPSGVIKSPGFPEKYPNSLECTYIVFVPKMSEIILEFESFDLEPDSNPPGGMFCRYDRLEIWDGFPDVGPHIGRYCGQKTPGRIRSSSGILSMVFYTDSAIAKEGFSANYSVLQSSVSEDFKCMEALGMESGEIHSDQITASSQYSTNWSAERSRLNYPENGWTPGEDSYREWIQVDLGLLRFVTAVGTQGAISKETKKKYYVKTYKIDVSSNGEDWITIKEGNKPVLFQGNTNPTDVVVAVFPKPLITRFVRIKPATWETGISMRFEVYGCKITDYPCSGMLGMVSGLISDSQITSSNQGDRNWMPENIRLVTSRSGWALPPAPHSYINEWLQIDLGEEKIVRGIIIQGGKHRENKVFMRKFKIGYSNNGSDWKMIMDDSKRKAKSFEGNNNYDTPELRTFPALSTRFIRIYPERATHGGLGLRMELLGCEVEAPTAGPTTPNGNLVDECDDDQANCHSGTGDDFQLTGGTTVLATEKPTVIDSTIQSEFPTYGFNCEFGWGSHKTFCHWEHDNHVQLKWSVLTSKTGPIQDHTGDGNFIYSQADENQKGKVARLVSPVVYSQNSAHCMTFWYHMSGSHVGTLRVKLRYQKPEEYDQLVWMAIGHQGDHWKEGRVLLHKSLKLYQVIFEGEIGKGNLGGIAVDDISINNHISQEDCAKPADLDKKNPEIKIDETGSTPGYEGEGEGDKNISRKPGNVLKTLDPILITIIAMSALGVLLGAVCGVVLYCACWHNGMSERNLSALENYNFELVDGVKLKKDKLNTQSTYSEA
`COc1ccc(/C=C\c2cc(OC)c(OC)c(OC)c2)cc1NC(=O)CCC(=O)N[C@@H](CCCNC(=N)N)C(=O)O` had an IC50 of 0.85 µM.
On to `COc1ccc(/C=C\c2cc(OC)c(OC)c(OC)c2)cc1NC(=O)/C=C/C(=O)N[C@@H](CCCNC(=N)N)C(=O)O`, for which the IC50 was found to be 3.91 µM.
In turn, `COc1ccc(/C=C\c2cc(OC)c(OC)c(OC)c2)cc1NC(=O)CCCC(=O)N[C@@H](CCCNC(=N)N)C(=O)O` yielded an IC50 of 6.33 µM.
The same measure, in the same setting: in the case of `COc1ccc(/C=C\c2cc(OC)c(OC)c(OC)c2)cc1NC(=O)CCCCC(=O)N[C@@H](CCCNC(=N)N)C(=O)O` it was 8.94 µM; in that of `COc1ccc(/C=C\c2cc(OC)c(OC)c(OC)c2)cc1NC(=O)CCCCCCC(=O)N[C@@H](CCCNC(=N)N)C(=O)O`, 15 µM; in that of `NC(N)=NCCC[C@H](NC(=O)c1sccc1NS(=O)(=O)c1cccc2nsnc12)C(=O)O` [(S)-2-(3-(benzo[c][1,2,5]thiadiazole-4-sulfonamido)thiophene-2-carboxamido)-5-guanidinopentanoic acid], 2.91 µM.

(Values after BindingDB's records for doi:10.1021/acs.jmedchem.3c01572 (China Pharmaceutical University, 2023).)
